The source of these data is patent US12435092B2, “Substituted imidazo[1,2-A]quinazolines as inhibitors of PARG” (858 Therapeutics, Inc., priority 2022, dated 2025).

pIC50: −log10 of the molar value. Some results are limits rather than exact numbers.

This assay concerns the target T1, cellular PARG (Homo sapiens, UniProt Q86W56).
T1 construct: endogenous in cells; host or cells: HeLa
Kind of assay: Nuclear PAR accumulation assay (immunofluorescence high-content imaging). It counts as cell-based. To be noted: HeLa cells, 1 hour compound treatment then MMS 50 μg/mL for an additional hour. Summed up: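 HeLa cells pretreated 1 h at 37 °C with compound, then 1 h with 50 μg/mL MMS (final), methanol-fixed and immunostained for PAR with DAPI nuclear counterstain. Nuclear PAR intensity and percent PAR-positive cells quantified by high-content imaging (≥1,000 cells/well). IC50 by four-parameter logistic fit, normalized to 0.1% DMSO and reference-compound controls.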

T1 sequence (Q86W56 whole entry): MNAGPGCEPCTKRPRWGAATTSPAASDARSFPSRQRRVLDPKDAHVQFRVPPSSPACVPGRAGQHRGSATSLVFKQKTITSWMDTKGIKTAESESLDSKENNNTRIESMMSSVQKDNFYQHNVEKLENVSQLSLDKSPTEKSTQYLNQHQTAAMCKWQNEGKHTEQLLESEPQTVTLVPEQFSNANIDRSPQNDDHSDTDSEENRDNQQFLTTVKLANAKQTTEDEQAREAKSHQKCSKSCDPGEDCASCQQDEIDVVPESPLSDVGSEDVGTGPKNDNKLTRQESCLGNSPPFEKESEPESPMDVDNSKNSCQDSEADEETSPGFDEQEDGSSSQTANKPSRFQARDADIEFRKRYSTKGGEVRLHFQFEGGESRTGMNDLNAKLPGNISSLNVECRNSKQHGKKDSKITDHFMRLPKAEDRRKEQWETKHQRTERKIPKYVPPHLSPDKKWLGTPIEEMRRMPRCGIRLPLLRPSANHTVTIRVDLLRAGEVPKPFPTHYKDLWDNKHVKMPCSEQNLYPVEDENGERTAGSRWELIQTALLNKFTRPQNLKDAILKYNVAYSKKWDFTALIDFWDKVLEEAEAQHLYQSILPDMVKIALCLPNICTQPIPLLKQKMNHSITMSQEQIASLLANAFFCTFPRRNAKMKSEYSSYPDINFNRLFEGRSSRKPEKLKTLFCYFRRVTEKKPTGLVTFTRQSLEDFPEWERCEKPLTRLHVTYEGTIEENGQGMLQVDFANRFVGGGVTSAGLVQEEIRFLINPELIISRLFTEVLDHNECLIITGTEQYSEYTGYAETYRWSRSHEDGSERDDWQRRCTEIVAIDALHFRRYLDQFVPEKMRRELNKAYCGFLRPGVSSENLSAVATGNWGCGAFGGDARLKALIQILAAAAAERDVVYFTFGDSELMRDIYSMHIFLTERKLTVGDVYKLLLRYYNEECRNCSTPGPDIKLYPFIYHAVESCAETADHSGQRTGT

Compound `C[C@@H]1CN=C2N(Cc3cnn(C)c3)C(=O)c3cc(S(=O)(=O)NC4(C)CC4)cc(N4CCN(C(=O)N(C)C)CC4)c3N21` [Example 130, (R)—N,N-dimethyl-4-(1-methyl-4-((1-methyl-1H-pyrazol-4-yl)methyl)-7-(N-(1-methylcyclopropyl)sulfamoyl)-5-oxo-1,2,4,5-tetrahydroimidazo[1,2-a]quinazolin-9-yl)piperazine-1-carboxamide] had a negative-log IC50 (pIC50) of at least 7.00.
In the case of `C[C@@H]1CN=C2N(Cc3cnn(C)c3)C(=O)c3cc(S(=O)(=O)NC4(C)CC4)cc(C4=CCN(C)CC4)c3N21` [Example 131, (R)-1-methyl-9-(1-methyl-1,2,3,6-tetrahydropyridin-4-yl)-4-((1-methyl-1H-pyrazol-4-yl)methyl)-N-(1-methylcyclopropyl)-5-oxo-1,2,4,5-tetrahydroimidazo[1,2-a]quinazoline-7-sulfonamide] it was at least 7.00; in that of `[2H]C([2H])(c1cnn(C)c1)N1C(=O)c2cc(S(=O)(=O)NC3(C)CC3)cc(C)c2N2C1=NC[C@H]2C` [Example 132, (R)-1,9-dimethyl-4-((1-methyl-1H-pyrazol-4-yl)methyl-d2)-N-(1-methylcyclopropyl)-5-oxo-1,2,4,5-tetrahydroimidazo[1,2-a]quinazoline-7-sulfonamide], at least 7.00.
The compound `C[C@@H]1CN=C2N(Cc3cnn(C)c3)C(=O)c3cc(S(=O)(=O)NC4(C)CC4)cc(C4=CCOCC4)c3N21` [Example 133, (R)-9-(3,6-dihydro-2H-pyran-4-yl)-1-methyl-4-((1-methyl-1H-pyrazol-4-yl)methyl)-N-(1-methylcyclopropyl)-5-oxo-1,2,4,5-tetrahydroimidazo[1,2-a]quinazoline-7-sulfonamide] showed a pIC50 of at least 7.00.
Regarding `[2H]C([2H])(c1cnn(C)c1)N1C(=O)c2cc(S(=O)(=O)NC3(C)CC3)cc(C(F)(F)F)c2N2C1=NC[C@H]2C` [Example 134, (R)-1-methyl-4-((1-methyl-1H-pyrazol-4-yl)methyl-d2)-N-(1-methylcyclopropyl)-5-oxo-9-(trifluoromethyl)-1,2,4,5-tetrahydroimidazo[1,2-a]quinazoline-7-sulfonamide], the pIC50 is at least 7.00.
In turn, `C[C@@H]1CN=C2N(Cc3cnn(C)c3)C(=O)c3cc(S(=O)(=O)NC4(C)CC4)cc(-c4ccc(F)nc4)c3N21` [Example 135, (R)-9-(6-fluoropyridin-3-yl)-1-methyl-4-((1-methyl-1H-pyrazol-4-yl)methyl)-N-(1-methylcyclopropyl)-5-oxo-1,2,4,5-tetrahydroimidazo[1,2-a]quinazoline-7-sulfonamide] had a pIC50 of at least 7.00.
For `C[C@@H]1CN=C2N(Cc3cnn(C)c3)C(=O)c3cc(S(=O)(=O)NC4(C)CC4)cc(-c4ccc(F)cc4)c3N21` [Example 136, (R)-9-(4-fluorophenyl)-1-methyl-4-((1-methyl-1H-pyrazol-4-yl)methyl)-N-(1-methylcyclopropyl)-5-oxo-1,2,4,5-tetrahydroimidazo[1,2-a]quinazoline-7-sulfonamide], the pIC50 is at least 7.00.
In the case of `[2H]C([2H])(c1cnn(C)c1)N1C(=O)c2cc(S(=O)(=O)NC3(C)CC3)cc(Br)c2N2C1=NC[C@H]2C` [Example 137, (R)-9-bromo-1-methyl-4-((1-methyl-1H-pyrazol-4-yl)methyl-d2)-N-(1-methylcyclopropyl)-5-oxo-1,2,4,5-tetrahydroimidazo[1,2-a]quinazoline-7-sulfonamide], the pIC50 was at least 7.00.
Turning to `C[C@@H]1CN=C2N(Cc3cnn(C)c3)C(=O)c3cc(S(=O)(=O)NC4(C)CC4)cc(C#N)c3N21` [Example 138, (R)-9-cyano-1-methyl-4-((1-methyl-1H-pyrazol-4-yl)methyl)-N-(1-methylcyclopropyl)-5-oxo-1,2,4,5-tetrahydroimidazo[1,2-a]quinazoline-7-sulfonamide], the pIC50 is 6.00 to 7.00.

A word on the pIC50: it is the IC50 on a negative log10 scale, so that one unit is a factor of ten. Low readings indicate a large IC50, high ones a small IC50.
